Consider one compound from patent US11713470B2, “Targeted gene therapies for pain and other neuro-related disorders” (University of Pittsburgh—Of the Commonwealth System of …, priority 2017, dated 2023).

In test [1] the target is T1, PSAM-GlyR (Homo sapiens, UniProt P23415+P36544, L141F).
T1 construct: plasmid from Addgene (Sternson); host or cells: mouse dorsal horn neurons transduced with Cre-dependent AAV2/8 (Tlx3^Cre, CCK^Cre or Calr^Cre mice)
As to the kind of experiment: Patch clamp electrophysiology in spinal cord slices of Tlx3^Cre mice injected with AAV8-Flex-PSAM-GlyR. The class given is tissue-based, mouse. How it is done:
FIGS. 6A and 6B. Positive and negative controls for PSAM-GlyR and PSEM^89S. (a) Schematic of PSAM-GlyR construct with GFP reporter used to make AAV8-hSyn-Flex-PSAM-GlyR. Virus was injected into Tlx3^Cre mice for electrophysiological slice recordings. (b) Electrode impaling a GFP^+ cell (also shown as DI, image) in a transverse slice of the dorsal horn from a Tlx3^Cre mouse injected with AAV8-hSyn-Flex-PSAMGlyR virus. […] (e) Control for the specificity of α-BTX-Alexa647. Contralateral dorsal horn lacks staining for α-BTX-Alexa647. Calretinin (green in original); PKCγ. Scale bar=50 μm. Box indicates area of inset. (f) In mice lacking PSAM-GlyR, mechanical allodynia and heat hypersensitivity induced by the carrageenan pain model are not altered by injection of PSEM^89S (30 mg/kg, i.p.) (p>0.999, n=4) (g) Punctate and dynamic allodynia induced by CFA are also not altered by injection of PSEM^89S (p>0.999, n=6). (h) In the mice lacking PSAM-GlyR, punctate and dynamic allodynia induced by the sural-SNI model are not altered by injection of PSEM^89S (30 mg/kg, i.p.) ([…], n=6). Data are mean±standard error of the mean (SEM). ***P<0.001; ns=not significant (i.e. p>0.05)
Prior to assessing the role of the neurons in somatosensory behavior, the ability of PSAM-GlyR to inhibit excitatory interneurons in the dorsal horn was tested using electrophysiological recordings in spinal cord slices. AAV8-Flex-PSAM-GlyR was injected intraspinally into the dorsal horn of P16 Tlx3^Cre mice. In this mouse line, the recombinase is strictly expressed by excitatory neurons located throughout laminae I-III. Three weeks later, neuronal excitability was measured using patch clamp electrophysiology in spinal cord slices in the presence and absence of PSEM^89S (FIG. 6(a-d)). To identify PSAM-GlyR^+ neurons, we identified cells expressing green fluorescent protein (GFP), which is also encoded by the PSAM-GlyR viral construct (FIG. 6(a,b)). […] We also tested the effect of the ligand PSEM^89S on pain behavior in mice lacking the receptor (FIG. 6(f,h)).
On the technique in general: In patch-clamp work, channel activity is measured electrically.

The next test concerns mice lacking PSAM-GlyR. Briefly: Pain models (carrageenan, CFA, sural-SNI) in mice lacking PSAM-GlyR (ligand-alone control). The class given is in vivo, mouse. The settings on record: 30 mg/kg i.p. The text has this:
Methods. Animals: All animals were kept on a standard 12:12 light/dark cycle in micro-isolator caging racks (Allentown Caging) with food and water provided ad libitum. Mouse strains obtained from Jackson Laboratories include C57Bl/6J (JAX #000664), Calr^Cre (JAX #010774) and CCK^Cre (JAX #012706). Adeno-associated viruses (AAV2/8) used in these experiments: hSyn-Flex-rev-PSAM^L141F-GlyR-IRES-eGFP (7^12 vg/ml) and hSyn-Flex-rev-PSAM^L141F,Y115F-GlyR-IRES-eGFP (1.7^13 vg/ml) were custom made by UNC Vector core based on plasmid material developed by Scott Sternson and provided by Addgene. The hSyn-Flex-rev-PSAM^L141F-GlyR-IRES-eGFP (7^12 vg/ml) was used in all experiments except FIG. 8 (e,f). For these experiments, hSyn-Flex-rev-PSAM^L141F,Y115F-GlyR-IRES-eGFP (1.7^13 vg/ml) was used. Methods including: intra-spinal virus injections, paw withdrawal threshold to von Frey filaments, to cotton swab, Hargreaves, pinprick and acute pain behaviors licking, guarding, flicking are all as previously described (Peirs, C. et al. Dorsal Horn Circuits for Persistent Mechanical Pain. Neuron 87, 797-812 (2015); Seal, R. P. et al. Injury-induced mechanical hypersensitivity requires C-low threshold mechanoreceptors. Nature 462, 651-655, (2009)); For paw withdrawal threshold to pressure: mice were lightly restrained by hand such that their rear legs were allowed to freely hang. Using a Pressure Application Measurement device (Ugo Basile) the hind paw was grasped between the experimenter's forefinger and thumb (with pressure transducer on the thumb), and force was slowly applied to the paw until the mouse struggled or flicked its limb (paw withdrawal threshold, PWT). The final force in grams was recorded. Each mouse was tested on the left and right paw for three trials with a ten-minute inter-trial interval between applications, and the three results averaged for each paw. Injury Models including incision, complete Freund's adjuvant, spared nerve injury tibial and sural models, carrageenan, methylglyoxal and multi-dose streptozotocin are as previously described (Peirs, C. et al. Dorsal Horn Circuits for Persistent Mechanical Pain. Neuron 87, 797-812 (2015); Seal, R. P. et al. Injury-induced mechanical hypersensitivity requires C-low threshold mechanoreceptors. Nature 462, 651-655, (2009); Decosterd, I. and Woolf, C. J. Spared nerve injury: an animal model of persistent peripheral neuropathic pain. Pain 87, 149-158 (2000); Bierhaus, A. et al. Methylglyoxal modification of Nav1.8 facilitates nociceptive neuron firing and causes hyperalgesia in diabetic neuropathy. Nat Med 18, 926-933 (2012); Cavanaugh, D. J. et al. Distinct subsets of unmyelinated primary sensory fibers mediate behavioral responses to noxious thermal and mechanical stimuli. Proc Natl Acad Sci USA 106, 9075-9080, (2009)). Chemogenetic Activation of PSAM-GlyR Receptor: Behavior thresholds were performed as described above in AAV8-hSyn-DIO-PSAM-GlyR-IRES-GFP injected mice. PSEM^89S at 30 mg/kg was injected intraperitoneally 15 minutes prior to testing. Immunohistochemistry was performed as previously described (Peirs, C. et al. Dorsal Horn Circuits for Persistent Mechanical Pain. Neuron 87, 797-812 (2015); Seal, R. P. et al. Injury-induced mechanical hypersensitivity requires C-low threshold mechanoreceptors. Nature 462, 651-655 (2009)). α-bungarotoxin conjugated to Alexa-647 (1:1000; ThermoFisher B35450), α-bungarotoxin conjugated to Alexa-488 (1:1000; ThermoFisher B13422). Imaging: Spinal cord sections were imaged with a confocal laser-scanning microscope (Nikon A1R) and Nikon Elements software using 405-, 488-, 561- and 640 nm excitation laser light. In order to suppress emission crosstalk, the microscope was configured to perform all scanning in sequential mode. Z-series were scanned at 20× magnification with an oil immersion lens and a z-step of 5.0 μm. Quantification and Statistical Analysis: all data are reported as mean±SEM. For acute behaviors, a two-tailed Student's t-test was used. […]

Test [2] deals with PSAM-GlyR. The settings on record: Magnus et al. 2011; cited from earlier work.

Entries after “also recorded” stand apart in the source; their conditions may differ.

T1 sequence (P36544+P23415 fused P36544:L141F): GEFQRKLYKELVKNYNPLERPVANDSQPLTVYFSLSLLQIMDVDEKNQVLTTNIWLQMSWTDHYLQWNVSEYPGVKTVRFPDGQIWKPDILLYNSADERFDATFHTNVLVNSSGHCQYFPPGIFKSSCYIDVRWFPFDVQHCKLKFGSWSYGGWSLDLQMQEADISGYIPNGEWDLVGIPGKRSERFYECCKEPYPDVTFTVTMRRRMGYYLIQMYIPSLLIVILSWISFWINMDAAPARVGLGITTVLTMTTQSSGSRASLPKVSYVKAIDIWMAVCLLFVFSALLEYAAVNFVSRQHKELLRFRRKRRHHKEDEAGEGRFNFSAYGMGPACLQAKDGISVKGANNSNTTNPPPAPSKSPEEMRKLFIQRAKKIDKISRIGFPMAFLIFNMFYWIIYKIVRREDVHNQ

In the case of `COc1ccc(OC)c(C(=O)NC2CN3CCC2CC3)c1` (stereo not shown) [PSEM^89S], the “decrease of membrane potential” value at PSAM-GlyR [1] (30 μM PSEM^89S applied to spinal cord slices, GFP^+ neurons, n=3 cells from 2 mice) was −7.3±3.4 mV. In addition, on PSAM-GlyR [1] (30 μM, GFP^+ cells), the “action potentials generated by current injection” value is recorded as “completely blocked”. In addition, at PSAM-GlyR [1] (30 μM, specifically in GFP-expressing cells), the “hyperpolarization on bath application” value is “sustained hyperpolarization”. Moreover, in the test on mice lacking PSAM-GlyR, the “dynamic allodynia induced by the sural-SNI model” value is recorded as “not altered” and the “punctate allodynia induced by the sural-SNI model” value is reported as “not altered”. Moreover, in the test on mice lacking PSAM-GlyR (p>0.999), the “dynamic allodynia induced by CFA” value is reported as “not altered; also recorded: no effect”; the “heat hypersensitivity, carrageenan pain model” value was “not altered; also recorded: no effect”; the “mechanical allodynia, carrageenan pain model” value was “not altered; also recorded: no effect”; the “punctate allodynia induced by CFA” value is listed as “not altered; also recorded: no effect”. Further, the “binding to the mutated receptor binding domain” value in the test with PSAM-GlyR [2] is on record as “high affinity”.
